Experimental data: US20100323989A1, “PHARMACEUTICAL COMBINATIONS USEFUL FOR TREATING HCV” (Gilead Sciences, Inc., priority 2009, published 2010)
“And” between values parts separate entries of the source, which are not always exact repeats. Identical values can stand only once. Like-named read-outs stand apart in the source and are kept apart here.

Experiments:
[1] = tested on: HCV 1b-con replicon cells; assay: Long-term (20 days, 6 passages) treatment of HCV replicon cells, HCV RNA by Real-Time RT PCR; assay type: cell-based, HCV genotype 1b; details: from baseline, compounds at 10 times their EC50, mean ± SD
Procedure: (§1) HCV genotype 1b replicon cells (Huh-luc) were obtained from Reblikon (Mainz, Germany). The replicon in these cells is designated I389luc-ubi-neo/NS3-3′/ET and encodes a selectable resistance marker (neomycin phosphotransferase) as well as the firefly luciferase reporter gene. Huh-luc cells were maintained in Dulbecco's Modified Eagle's Medium (DMEM; GIBCO, Carlsbad, Calif.) supplemented with 10% fetal bovine serum (FBS; Hyclone, Logan, Utah) and 0.5 mg/mL of G-418 (GIBCO). Cells were passaged twice a week and maintained at subconfluent levels.
Both compounds were used at concentrations 10 times over their respective EC50 values. In brief, replicon cells (10^6 cells) were plated in a T75 flask in 15 mL of supplemented DMEM without G418. […] At each passage, cells were trypsinized, 10^6 cells were frozen in […] of RLT RNA lysis buffer (QIAGEN), and an additional 10^6 cells were seeded into another T75 flask with fresh medium and inhibitors. At the end of the assay, RNA was extracted from frozen replicon cells saved at the time of passage using QIAGEN RNeasy spin kit and was analyzed in a Real-Time RT PCR assay (Applied Biosystems).

[2] = tested on: wild-type 1b Con-1 PI-Luc replicon; assay: Transient transfection replicon assay, wild type; assay type: cell-based, HCV genotype 1b; details: Hepatitis C virus
[3] = tested on: 1b Con-1 PI-Luc replicon with NS5B polymerase mutation M423T; assay type: cell-based, HCV genotype 1b; details: ratio of mutant EC50 to wild type EC50, NS5B M423T
[4] = tested on: 1b Con-1 PI-Luc replicon with NS5B polymerase mutation Y448H; assay type: cell-based, HCV genotype 1b; details: ratio of mutant EC50 to wild type EC50, NS5B Y448H
[5] = tested on: HCV genotype 1b replicon cells (Huh-luc); assay: Combination study in Huh-luc replicon cells analysed with MacSynergy II; assay type: cell-based; details: Compound 1 in combination with Compound 2, MacSynergy II
Procedure: as §1
For each individual drug, the EC50 value was selected as the midpoint for the concentration range tested. Cells were incubated for three days and analyzed for luciferase expression as indicated above. For the combination study, two independent experiments were performed in triplicate.
The calculated volumes of surface deviations are expressed in nM2%. Per Prichard and Shipman, combination effects are defined as:
Highly synergistic if volumes >100 nM^2.
Slightly synergistic if volumes are >50 and ≦100 nM^2.
Additive if volumes are >−50 nM^2 and ≦50 nM^2.
Slightly antagonistic if volumes are >−100 nM^2 and ≦−50 nM^2.
Antagonistic if volumes are ≦−100 nM^2.

[6] = tested on: 1b PI-luc replicon with NS3 protease mutation V36M; assay type: cell-based, HCV genotype 1b; details: ratio of mutant EC50 to wild type EC50, NS3 V36M
[7] = Multiple-dose pharmacokinetic interaction study in healthy subjects (Example 5); assay type: in vivo, human; details: plasma, human, oral, Compound 2 (75 mg BID) alone, Day 7
[8] = tested on: 1b PI-luc replicon with NS3 protease mutation A156T; assay type: cell-based, HCV genotype 1b; details: ratio of mutant EC50 to wild type EC50, NS3 A156T
[9] = Pharmacokinetic drug-drug interaction study, single dose with multiple-dose partner, healthy subjects (Example 6); assay type: in vivo, human; details: for AUC(0-t) / AUC(0-inf) / Cmax / half-life: human, plasma, Group 3, human; for AUC(0-t): read-out: Compound 2 AUC0-last, Mean (% CV); for AUC(0-inf): read-out: Compound 2 AUCinf, Mean (% CV); for Cmax: read-out: Compound 2 Cmax, Mean (% CV); for half-life: read-out: Compound 2 T1/2, Median (min, max) (converted)
Procedure: In this study, healthy subjects were randomized into one of the following three treatment groups: […] Treatment Group 3 (N=20): […] Serial blood samples for analysis of plasma concentrations of Compound 2 were collected up to 72 hours post-morning dose on Days 1 and 10 to determine systemic drug exposure.

[10] = tested on: 1b PI-luc replicon with NS3 protease mutation R155K; assay type: cell-based, HCV genotype 1b; details: ratio of mutant EC50 to wild type EC50, NS3 R155K
[11] = tested on: 1b Con-1 PI-Luc replicon with NS5B polymerase mutations C316Y/C445F/Y452H; assay type: cell-based, HCV genotype 1b; details: ratio of mutant EC50 to wild type EC50, NS5B C316Y/C445F/Y452H
[12] = tested on: 1b PI-luc replicon with NS3 protease mutation D168E; assay type: cell-based, HCV genotype 1b; details: ratio of mutant EC50 to wild type EC50, NS3 D168E
[13] = tested on: 1b PI-luc replicon with NS3 protease mutation T54A; assay type: cell-based, HCV genotype 1b; details: ratio of mutant EC50 to wild type EC50, NS3 T54A
[14] = tested on: 1b PI-luc replicon with NS3 protease mutation D168V; assay type: cell-based, HCV genotype 1b; details: ratio of mutant EC50 to wild type EC50, NS3 D168V
[15] = tested on: 1b Con-1 PI-Luc replicon with NS5B polymerase mutation M414T; assay type: cell-based, HCV genotype 1b; details: ratio of mutant EC50 to wild type EC50, NS5B M414T
[16] = Group 3, Compound 1 + Compound 2 / Compound 2 alone
[17] = Group 3, Compound 2 75 mg with Compound 1 40 mg BID vs Compound 2 75 mg alone
[18] = 75 mg, Compound 2 75 mg SD alone
[19] = Compound 2 75 mg SD + Compound 1 40 mg BID

**Q.** With `COc1ccc2c(O[C@@H]3C[C@H]4C(=O)N[C@]5(P(=O)(O)Cc6c(F)cccc6F)C[C@H]5CCCCCCC[C@H](NC(=O)OC5CCCC5)C(=O)N4C3)cc(-c3csc(NC(C)C)n3)nc2c1Cl` [Compound 2] as the molecule, how does the “HCV RNA Change in Log10, Passage 5” value [1] read?
**A.** −2.9 ± 0.2 Log10

**Q.** What about the “HCV RNA Change in Log10, Passage 6” value [1] of the same molecule?
**A.** −3.1 Log10 and −3.1 ± 0.4 Log10

**Q.** What about the EC50 ([2]; Table 3 (NS5B mutation study)) of the same molecule?
**A.** 50.7 nM

**Q.** And the EC50 ([2]; Table 4 (NS3 protease mutation study))?
**A.** 21.4 nM

**Q.** And the “Fold Resistance M423T” value [3]?
**A.** 1.1 fold

**Q.** And the “Fold Resistance Y448H” value [4]?
**A.** 1.0 fold

**Q.** What about the Interaction [5] of the same molecule?
**A.** additive

**Q.** What about the “Fold Resistance V36M” value [6] of the same molecule?
**A.** 3.0 fold

**Q.** What about the Cmax ([7]; read-out: Compound 2 Cmax, Mean (% CV)) of the same molecule?
**A.** 4500 ng/mL

**Q.** And the concentration at 12 h ([7]; read-out: Compound 2 Ctau, Mean (% CV))?
**A.** 1550 ng/mL

**Q.** And the “Fold Resistance A156T” value [8]?
**A.** 1882.4 fold

**Q.** What about the “Compound 2 AUC0-last, % Geometric Least-Squares Mean Ratio (90% CI)” value [9, 16] of the same molecule?
**A.** 83.8 (75.5, 93.2) %

**Q.** And the “Compound 2 AUCinf, % Geometric Least-Squares Mean Ratio (90% CI)” value [9, 16]?
**A.** 84.9 (76.6, 94.1) %

**Q.** And the “Compound 2 Cmax, % Geometric Least-Squares Mean Ratio (90% CI)” value [9, 16]?
**A.** 81.3 (72.5, 91.1) %

**Q.** What about the “Median terminal elimination half-lives of Compound 2, comparison between the two treatments” value ([9]; Group 3, Compound 2 75 mg alone vs with Compound 1 40 mg BID) of the same molecule?
**A.** similar

**Q.** And the “decrease in AUC0-last of Compound 2” value [9, 17]?
**A.** 16%

**Q.** And the “decrease in AUCinf of Compound 2” value [9, 17]?
**A.** 15%

**Q.** What about the “decrease in Cmax of Compound 2” value [9, 17] of the same molecule?
**A.** 19%

**Q.** What about the AUC(0-t) [9, 18] of the same molecule?
**A.** 8790 ng·h/mL

**Q.** And the AUC(0-inf) [9, 18]?
**A.** 9460 ng·h/mL

**Q.** And the Cmax [9, 18]?
**A.** 1040 ng/mL

**Q.** And the half-life [9, 18]?
**A.** 5.05 h

**Q.** And the AUC(0-t) [9, 19]?
**A.** 7270 ng·h/mL

**Q.** What about the AUC(0-inf) [9, 19] of the same molecule?
**A.** 7920 ng·h/mL

**Q.** What about the Cmax [9, 19] of the same molecule?
**A.** 830 ng/mL

**Q.** What about the half-life [9, 19] of the same molecule?
**A.** 6.06 h

**Q.** And the “Fold Resistance R155K” value [10]?
**A.** 566.3 fold

**Q.** What about the “Fold Resistance C316Y/C445F/Y452H” value [11] of the same molecule?
**A.** 2.1 fold

**Q.** And the “Fold Resistance D168E” value [12]?
**A.** 120.0 fold

**Q.** What about the “Fold Resistance T54A” value [13] of the same molecule?
**A.** 0.6 fold

**Q.** And the “Fold Resistance D168V” value [14]?
**A.** 1832.3 fold

**Q.** What about the “Fold Resistance M414T” value [15] of the same molecule?
**A.** 2.0 fold
